# From patent US9073853B2, “Cycloalkane carboxylic acid derivatives as CXCR3 receptor antagonists” (Sanofi, priority 2011, dated 2015)
# Target: human CXCR3-A receptor (Homo sapiens (Human), UniProt P49682)
# Assay: 125I-CXCL10 competition radioligand binding assay
# Conditions: displacement of 125I-CXCL10 from membranes of CHO cells expressing human recombinant CXCR3-A
# Procedure, shortened: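 Membranes from a recombinant cell line expressing human CXCR3-A (10-20 μg protein) were incubated with 125I-CXCL10 and test compound for 60 min at 25° C, then filtered onto PEI-soaked GF/B filters and gamma-counted. IC50 and Hill slope came from four-parameter nonlinear fitting of competition curves.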
# Sequence of human CXCR3-A receptor (P49682 whole entry): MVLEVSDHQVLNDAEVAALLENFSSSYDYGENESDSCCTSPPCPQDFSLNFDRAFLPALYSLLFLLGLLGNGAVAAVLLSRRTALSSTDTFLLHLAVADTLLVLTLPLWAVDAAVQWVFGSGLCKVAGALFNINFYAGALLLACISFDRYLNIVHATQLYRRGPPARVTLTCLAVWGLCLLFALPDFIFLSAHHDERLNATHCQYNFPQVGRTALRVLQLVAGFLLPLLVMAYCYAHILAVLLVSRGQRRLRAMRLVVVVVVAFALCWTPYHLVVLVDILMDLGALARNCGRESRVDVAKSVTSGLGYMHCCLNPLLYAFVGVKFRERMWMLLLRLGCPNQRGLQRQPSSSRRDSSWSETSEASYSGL
row,SMILES,IC50
1,"CCc1cc(CN(C[C@H]2CC[C@H](C(=O)O)CC2)[C@@H](C)c2ccc(Cl)cc2)ccc1OCCN1C(=O)CCC1=O [Example 75, trans-4-[([(S)-1-(4-Chloro-phenyl)-ethyl]-{4-[2-(2,5-dioxo-pyrrolidin-1-yl)-ethoxy]-3-ethyl-benzyl}-amino)-methyl]-cyclohexanecarboxylic acid]",45 nM
2,"CCc1cc(CN(C[C@H]2CC[C@H](C(=O)O)CC2)C(C)c2ccc3c(c2)CCO3)ccc1OCCN1C(=O)CCC1=O (stereo partly drawn) [Example 76, trans-4-[([1-(2,3-Dihydro-benzofuran-5-yl)-ethyl]-{4-[2-(2,5-dioxo-pyrrolidin-1-yl)-ethoxy]-3-ethyl-benzyl}-amino)-methyl]-cyclohexanecarboxylic acid]",45 nM
3,"COc1cc(CN(C[C@H]2CC[C@H](C(=O)O)CC2)C(C)c2ccc(Cl)c(Cl)c2)ccc1OCCN1C(=O)CCC1=O (stereo partly drawn) [Example 77, trans-4-[([1-(3,4-Dichloro-phenyl)-ethyl]-{4-[2-(2,5-dioxo-pyrrolidin-1-yl)-ethoxy]-3-methoxy-benzyl}-amino)-methyl]-cyclohexanecarboxylic acid]",182 nM
4,"C[C@@H](c1ccc(Cl)cc1)N(Cc1ccc(OCCN2C(=O)CCC2=O)cc1)C[C@H]1CC[C@H](C(=O)O)CC1 [Example 79, trans-4-[([(S)-1-(4-Chloro-phenyl)-ethyl]-{4-[2-(2,5-dioxo-pyrrolidin-1-yl)-ethoxy]-benzyl}-amino)-methyl]-cyclohexanecarboxylic acid]",154 nM
5,"Cc1ccc(C(C)N(Cc2ccc(OCCN3C(=O)CCC3=O)c(C)c2)C[C@H]2CC[C@H](C(=O)O)CC2)cc1 (stereo partly drawn) [Example 83, trans-4-{[{4-[2-(2,5-Dioxo-pyrrolidin-1-yl)-ethoxy]-3-methyl-benzyl}-(1-p-tolyl-ethyl)-amino]-methyl}-cyclohexanecarboxylic acid]",146 nM
6,"C[C@@H](c1ccc(Cl)cc1)N(Cc1ccc(OCCN2C(=O)CCC2=O)c(CO)c1)C[C@H]1CC[C@H](C(=O)O)CC1 [Example 85, trans-4-[([(S)-1-(4-Chloro-phenyl)-ethyl]-{4-[2-(2,5-dioxo-pyrrolidin-1-yl)-ethoxy]-3-hydroxymethyl-benzyl}-amino)-methyl]-cyclohexanecarboxylic acid]",71 nM
7,"CCc1cc(CN(C[C@H]2CC[C@H](C(=O)O)CC2)C(C)c2ccc(Cl)c(F)c2)ccc1OCCN1C(=O)CCC1=O (stereo partly drawn) [Example 89, trans-4-[([1-(4-Chloro-3-fluoro-phenyl)-ethyl]-{4-[2-(2,5-dioxo-pyrrolidin-1-yl)-ethoxy]-3-ethyl-benzyl}-amino)-methyl]-cyclohexanecarboxylic acid]",52 nM
8,"CCc1cc(CN(C[C@H]2CC[C@H](C(=O)O)CC2)[C@@H](C)c2ccc(Cl)c(F)c2)ccc1OCCN1C(=O)CCC1=O [Example 91, trans-4-[([(S)-1-(4-Chloro-3-fluoro-phenyl)-ethyl]-{4-[2-(2,5-dioxo-pyrrolidin-1-yl)-ethoxy]-3-ethyl-benzyl}-amino)-methyl]-cyclohexanecarboxylic acid]",121 nM
9,"CC(c1ccc(Cl)c(F)c1)N(Cc1ccc(OCCN2C(=O)CCC2=O)c(F)c1)C[C@H]1CC[C@H](C(=O)O)CC1 (stereo partly drawn) [Example 92, trans-4-[([1-(4-Chloro-3-fluoro-phenyl)-ethyl]-{4-[2-(2,5-dioxo-pyrrolidin-1-yl)-ethoxy]-3-fluoro-benzyl}-amino)-methyl]-cyclohexanecarboxylic acid]",220 nM
10,"COc1cc(CN(C[C@H]2CC[C@H](C(=O)O)CC2)C2CCc3c2ccc(F)c3Cl)ccc1OCCN1C(=O)CCC1=O (stereo partly drawn) [Example 93, trans-4-[((4-Chloro-5-fluoro-indan-1-yl)-{4-[2-(2,5-dioxo-pyrrolidin-1-yl)-ethoxy]-3-methoxy-benzyl}-amino)-methyl]-cyclohexanecarboxylic acid]",84 nM
11,"COc1cc(CN(C[C@H]2CC[C@H](C(=O)O)CC2)C2CCc3cc(F)c(Cl)cc32)ccc1OCCN1C(=O)CCC1=O (stereo partly drawn) [Example 94, trans-4-[((6-Chloro-5-fluoro-indan-1-yl)-{4-[2-(2,5-dioxo-pyrrolidin-1-yl)-ethoxy]-3-methoxy-benzyl}-amino)-methyl]-cyclohexanecarboxylic acid]",630 nM

# Further compounds by falling IC50, results first:
row,IC50,SMILES
1,494 nM,"CCc1cc(CN(C[C@H]2CC[C@H](C(=O)O)CC2)[C@H](C)c2ccc(Cl)c(F)c2)ccc1OCCN1C(=O)CCC1=O [Example 90, trans-4-[([(R)-1-(4-Chloro-3-fluoro-phenyl)-ethyl]-{4-[2-(2,5-dioxo-pyrrolidin-1-yl)-ethoxy]-3-ethyl-benzyl}-amino)-methyl]-cyclohexanecarboxylic acid]"
2,270 nM,"Cc1cc(CN(C[C@H]2CC[C@H](C(=O)O)CC2)C(C)c2ccc(Cl)c(Cl)c2)ccc1OCCN1C(=O)CCC1=O (stereo partly drawn) [Example 78, trans-4-[([1-(3,4-Dichloro-phenyl)-ethyl]-{4-[2-(2,5-dioxo-pyrrolidin-1-yl)-ethoxy]-3-methyl-benzyl}-amino)-methyl]-cyclohexanecarboxylic acid]"
3,245 nM,"CCc1ccc(C(C)N(Cc2ccc(OCCN3C(=O)CCC3=O)c(OC)c2)C[C@H]2CC[C@H](C(=O)O)CC2)cc1 (stereo partly drawn) [Example 81, trans-4-({{4-[2-(2,5-Dioxo-pyrrolidin-1-yl)-ethoxy]-3-methoxy-benzyl}-[1-(4-ethyl-phenyl)-ethyl]-amino}-methyl)-cyclohexanecarboxylic acid]"
4,107 nM,"COc1cc(CN(C[C@H]2CC[C@H](C(=O)O)CC2)C(C)c2ccc(C)cc2)ccc1OCCN1C(=O)CCC1=O (stereo partly drawn) [Example 84, trans-4-{[{4-[2-(2,5-Dioxo-pyrrolidin-1-yl)-ethoxy]-3-methoxy-benzyl}-(1-p-tolyl-ethyl)-amino]-methyl}-cyclohexanecarboxylic acid]"
5,85 nM,"CCc1cc(CN(C[C@H]2CC[C@H](C(=O)O)CC2)[C@H]2CCc3c2ccc(Cl)c3Cl)ccc1OCCN1C(=O)CCC1=O [Example 86, trans-4-[(((S)-4,5-Dichloro-indan-1-yl)-{4-[2-(2,5-dioxo-pyrrolidin-1-yl)-ethoxy]-3-ethyl-benzyl}-amino)-methyl]-cyclohexanecarboxylic acid]"
6,46 nM,"COc1cc(CN(C[C@H]2CC[C@H](C(=O)O)CC2)C(C)c2ccc(Cl)c(F)c2)ccc1OCCN1C(=O)CCC1=O (stereo partly drawn) [Example 82, trans-4-[([1-(4-Chloro-3-fluoro-phenyl)-ethyl]-{4-[2-(2,5-dioxo-pyrrolidin-1-yl)-ethoxy]-3-methoxy-benzyl}-amino)-methyl]-cyclohexanecarboxylic acid]"
7,23 nM,"COc1cc(CN(C[C@H]2CC[C@H](C(=O)O)CC2)[C@H]2CCc3cc(Cl)ccc32)ccc1SCCN1C(=O)CCC1=O [Example 88, trans-4-[(((S)-5-Chloro-indan-1-yl)-{4-[2-(2,5-dioxo-pyrrolidin-1-yl)-ethylsulfanyl]-3-methoxy-benzyl}-amino)-methyl]-cyclohexanecarboxylic acid]"
8,19 nM,"COc1cc(CN(C[C@H]2CC[C@H](C(=O)O)CC2)[C@@H](C)c2ccc(Cl)cc2)ccc1SCCN1C(=O)CCC1=O [Example 87, trans-4-[([(S)-1-(4-Chloro-phenyl)-ethyl]-{4-[2-(2,5-dioxo-pyrrolidin-1-yl)-ethylsulfanyl]-3-methoxy-benzyl}-amino)-methyl]-cyclohexanecarboxylic acid]"
